The values below come from patent US20200261421A1, “HETEROCYCLIC COMPOUNDS AS HIV PROTEASE INHIBITORS” (Merck Sharp & Dohme Corp., priority 2016, published 2020).

The assay addresses T1, wild-type HIV-1 protease (Human immunodeficiency virus type 1 group M subtype B, UniProt P04585).
T1 construct: Escherichia coli expressed wild-type HIV-1 protease protein; made in house; host or cells: Escherichia coli
Briefly: Assay for Inhibition of Microbial Expressed HIV Protease. The assay is classed as biochemical. The note with it: Escherichia coli expressed wild-type HIV-1 protease, peptide substrate cleavage; mean of at least two independent experiments. The protocol: Inhibition of Escherichia coli expressed wild-type HIV-1 protease protein was carried out with a peptide substrate [Val-Ser-Gln-Asn-Wnaphtyl)Ala-Pro-Ile-Val]. The inhibitor compound was preincubated with HIV-1 protease enzyme in assay buffer (50 mM sodium acetate, pH 5.5, 100 mM NaCl, and 0.1% BSA) for 30 minutes at room temperature. Peptide substrate was added to 400 μM in a total volume of 20 μL containing 20 pM HIV-1 protease (final) after which the reaction was incubated for 1 hour at 30° C. The reaction was quenched by the addition of formic acid and HIV protease inhibitor indinavir to 0.012% and 150 nM final concentrations, respectively. Product formation was determined after separation of product and substrate on a ZORBAX Eclipse XDB-C18 column (Aligent Technologies, Santa Clara, Calif., USA) connected to an API 4000™ mass spectrometer (AB Sciex, Pte. Ltd., Concord Ontario, Canada) with multiple reaction monitoring (transitions were 644.5/428.9 and 615.4/422.2 (M1/M3) for product and indinavir respectively). The extent of inhibition of the reaction was determined from the peak area of the products. Analysis of the products, independently synthesized, provided quantitation standards and confirmation of the product composition. […] Ic50's refer to the 50% inhibition of the cleavage of a peptide substrate by hiv protease.
Data shown in the table reflects the mean of at least two independent experiments.

The term IC50 denotes the concentration at which inhibition is half-maximal. Low readings indicate higher potency, high ones lower potency.

The compound `N=C1NC(c2ccc(F)cc2)(c2ccc(F)cc2)C(=O)N1Cc1ccc(C(F)(F)F)c(C(=O)NCc2cnccn2)c1` [Example 4, 5-{[4,4-bis(4-fluorophenyl)-2-imino-5-oxoimidazolidin-1-yl]methyl}-N-(pyrazin-2-ylmethyl)-2-(trifluoromethyl)benzamide] showed an IC50 of 30.9 nM.

Regarding `CC(C)CC1(c2ccccc2)NC(=N)N(Cc2ccc(Cl)c(C(=O)NCc3ccc(F)cc3)c2)C1=O` (stereo not drawn) [Example 72, 2-chloro-N-(4-fluorobenzyl)-5-{[2-imino-4-(2-methylpropyl)-5-oxo-4-phenylimidazolidin-1-yl]methyl}benzamide], the concentration for half-maximal inhibition (IC50) was determined as 9.5 nM.

In turn, `C[C@H](c1ccccc1)N(C)C(=O)c1cccc(CN2C(=N)NC(c3ccccc3)(c3ccccc3)C2=O)c1` [Example 48, 3-[(2-imino-5-oxo-4,4-diphenylimidazolidin-1-yl)methyl]-N-methyl-N-[(1R)-1-phenylethyl]benzamide] yielded an IC50 of 39.6 nM.

In turn, `CC(C)CCC1(c2ccc(F)cc2)NC(=N)N(Cc2cccc(C(=O)N(C)Cc3ccc(C#N)cc3)c2)C1=O` (stereo not drawn) [Example 35, N-(4-cyanobenzyl)-3-{[4-(4-fluorophenyl)-2-imino-4-(3-methylbutyl)-5-oxoimidazolidin-1-yl]methyl}-N-methylbenzamide] registered an IC50 of 20.5 nM.

`C[C@H](c1ccc(F)cc1)N(C)C(=O)c1cccc(CN2C(=N)NC(c3ccc(F)cc3)(c3ccc(F)cc3)C2=O)c1` [Example 44, 3-{[4,4-bis(4-fluorophenyl)-2-imino-5-oxoimidazolidin-1-yl]methyl}-N-[(1R)-1-(4-fluorophenyl)ethyl]-N-methylbenzamide]: the IC50 amounted to 29.2 nM.

As to `C[C@H](c1ccc(F)cc1)N(C)C(=O)c1cncc(CN2C(=N)NC(c3ccc(F)cc3)(c3ccc(F)cc3)C2=O)c1` [Example 79, 5-{[4,4-bis(4-fluorophenyl)-2-imino-5-oxoimidazolidin-1-yl]methyl}-N-[(1R)-1-(4-fluorophenyl)ethyl]-N-methylpyridine-3-carboxamide], half-maximal inhibition (IC50) was put at 13.7 nM.

For the compound `N=C1NC(c2ccccc2)(c2ccccc2)C(=O)N1Cc1ccc(C(F)(F)F)c(C(=O)NCc2cccc(OC(F)F)c2)c1` [Example 9, N-[3-(difluoromethoxy)benzyl]-5-[(2-imino-5-oxo-4,4-diphenylimidazolidin-1-yl)methyl]-2-(trifluoromethyl)benzamide], it took 68.4 nM to reach half-maximal inhibition (IC50).

In turn, `CC(C)CC1(c2ccc(F)cc2)NC(=N)N(Cc2cccc(C(=O)N(C)Cc3ccc(Cl)cc3)c2)C1=O` (stereo not drawn) [Example 16, N-(4-chlorobenzyl)-3-{[4-(4-fluorophenyl)-2-imino-4-(2-methylpropyl)-5-oxoimidazolidin-1-yl]methyl}-N-methylbenzamide] returned an IC50 of 9.12 nM.

Turning to `CC(C)CC1(c2ccccc2)NC(=N)N(Cc2cc(C(=O)N(C)Cc3ccc(C#N)cc3)ccn2)C1=O` (stereo not drawn) [Example 87, N-(4-cyanobenzyl)-2-{[2-imino-4-(2-methylpropyl)-5-oxo-4-phenylimidazolidin-1-yl]methyl}-N-methylpyridine-4-carboxamide], the half-inhibitory concentration (IC50) is 15.5 nM.

`CN(Cc1ccc(Cl)cc1)C(=O)c1ccnc(CN2C(=N)NC(c3ccc(F)cc3)(c3ccc(F)cc3)C2=O)c1` [Example 89, 2-{[4,4-bis(4-fluorophenyl)-2-imino-5-oxoimidazolidin-1-yl]methyl}-N-(4-chlorobenzyl)-N-methylpyridine-4-carboxamide]: the half-maximal inhibitory concentration (IC50) was 18.9 nM.

As for `CC(C)CCC1(c2ccccc2)NC(=N)N(Cc2ccc(C(F)(F)F)c(C(=O)NCC(F)F)c2)C1=O` (stereo not drawn) [Example 10, N-(2,2-difluoroethyl)-5-{[2-imino-4-(3-methylbutyl)-5-oxo-4-phenylimidazolidin-1-yl]methyl}-2-(trifluoromethyl)benzamide], the concentration for half-maximal inhibition (IC50) was determined as 91.2 nM.

In turn, `CN(Cc1ccccc1S(C)(=O)=O)C(=O)c1ccnc(CN2C(=N)NC(c3ccccc3)(c3ccccc3)C2=O)c1` [Example 92, 2-[(2-imino-5-oxo-4,4-diphenylimidazolidin-1-yl)methyl]-N-methyl-N-[2-(methylsulfonyl)benzyl]pyridine-4-carboxamide] gave an IC50 of 53 nM.

As for `CN(Cc1ccc(F)cc1)C(=O)c1cccc(CN2C(=N)NC(c3ccc(F)cc3)(c3ccc(F)cc3)C2=O)c1` [Example 28, 3-{[4,4-bis(4-fluorophenyl)-2-imino-5-oxoimidazolidin-1-yl]methyl}-N-(4-fluorobenzyl)-N-methylbenzamide], the IC50 was found to be 17.4 nM.

The compound `CC(C)CCC1(c2cccc(F)c2)NC(=N)N(Cc2cccc(C(=O)N(C)Cc3ccc(Cl)cc3)c2)C1=O` (stereo not drawn) [Example 49, N-(4-chlorobenzyl)-3-{[4-(3-fluorophenyl)-2-imino-4-(3-methylbutyl)-5-oxoimidazolidin-1-yl]methyl}-N-methylbenzamide] gave an IC50 of 43.5 nM.

The compound `COc1ccc(CN2C(=N)NC(c3ccccc3)(c3ccccc3)C2=O)cc1C(=O)N(C)Cc1ccc(F)cc1` [Example 78, N-(4-fluorobenzyl)-5-[(2-imino-5-oxo-4,4-diphenylimidazolidin-1-yl)methyl]-2-methoxy-N-methylbenzamide] showed a half-inhibitory concentration (IC50) of 53.6 nM.

With `CC(C)CCC1(c2ccccc2)NC(=N)N(Cc2cccc(C(=O)N(C)Cc3ccccc3S(C)(=O)=O)c2)C1=O` (stereo not drawn) [Example 29, 3-{[2-imino-4-(3-methylbutyl)-5-oxo-4-phenylimidazolidin-1-yl]methyl}-N-methyl-N-[2-(methylsulfonyl)-benzyl]benzamide], the IC50 turned out to be 17.8 nM.

In turn, `CN(Cc1ccc(Cl)cc1)C(=O)c1cccc(CN2C(=N)NC(c3ccc(F)cc3)(c3ccc(F)cc3)C2=O)c1` [Example 30, 3-{[4,4-bis(4-fluorophenyl)-2-imino-5-oxoimidazolidin-1-yl]methyl}-N-(4-chlorobenzyl)-N-methylbenzamide] registered an IC50 of 17.9 nM.

As to `CN(Cc1cccc(F)c1)C(=O)c1cccc(CN2C(=N)NC(c3ccc(F)cc3)(c3ccc(F)cc3)C2=O)c1` [Example 68, 3-{[4,4-bis(4-fluorophenyl)-2-imino-5-oxoimidazolidin-1-yl]methyl}-N-(3-fluorobenzyl)-N-methylbenzamide], 96.6 nM corresponded to half-maximal inhibition (IC50).

With `CN(Cc1ccccc1S(C)(=O)=O)C(=O)c1cc(CN2C(=N)NC(c3ccccc3)(c3ccccc3)C2=O)ccc1C(F)(F)F` [Example 3, 5-[(2-imino-5-oxo-4,4-diphenylimidazolidin-1-yl)methyl]-N-methyl-N-[2-(methylsulfonyl)benzyl]-2-(trifluoromethyl)benzamide], the IC50 worked out at 22.3 nM.

Regarding `CCCC1(c2ccccc2)NC(=N)N(Cc2cccc(C(=O)N(C)Cc3ccc(Cl)cc3)c2)C1=O` (stereo not drawn) [Example 27, N-(4-chlorobenzyl)-3-[(2-imino-5-oxo-4-phenyl-4-propylimidazolidin-1-yl)methyl]-N-methylbenzamide], the midpoint of inhibition, the IC50, lay at 16.9 nM.

Consider `N=C1NC(c2ccccc2)(c2ccccc2)C(=O)N1Cc1ccc(Cl)c(C(=O)NCc2cnccn2)c1` [Example 73, 2-chloro-5-[(2-imino-5-oxo-4,4-diphenylimidazolidin-1-yl)methyl]-N-(pyrazin-2-ylmethyl)benzamide], for which it took 11 nM to reach half-maximal inhibition (IC50).

Compound `CN(Cc1ccc(Cl)cc1)C(=O)c1cccc(CN2C(=N)NC(c3ccc(F)cc3)(c3ccccn3)C2=O)c1` (stereo not drawn) [Example 39, N-(4-chlorobenzyl)-3-{[4-(4-fluorophenyl)-2-imino-5-oxo-4-pyridin-2-ylimidazolidin-1-yl]methyl}-N-methylbenzamide] came in with a half-inhibitory concentration (IC50) of 24.8 nM.

The compound `N#Cc1ccc(CNC(=O)c2cc(CN3C(=N)NC(c4ccc(F)cc4)(c4ccc(F)cc4)C3=O)ccc2C(F)(F)F)cc1` [Example 5, 5-{[4,4-bis(4-fluorophenyl)-2-imino-5-oxoimidazolidin-1-yl]methyl}-N-(4-cyanobenzyl)-2-(trifluoromethyl)benzamide] returned an IC50 of 43 nM.

`CN(Cc1ccc(Cl)cc1)C(=O)c1cncc(CN2C(=N)NC(c3ccc(F)cc3)(c3ccc(F)cc3)C2=O)c1` [Example 81, 5-{[4,4-bis(4-fluorophenyl)-2-imino-5-oxoimidazolidin-1-yl]methyl}-N-(4-chlorobenzyl)-N-methylpyridine-3-carboxamide] had a 50% inhibitory concentration (IC50) of 22.7 nM.

`CC(C)CC1(c2ccccc2)NC(=N)N(Cc2cc(C(=O)N(C)Cc3ccc(Cl)cc3)ccn2)C1=O` (stereo not drawn) [Example 91, N-(4-chlorobenzyl)-2-{[2-imino-4-(2-methylpropyl)-5-oxo-4-phenylimidazolidin-1-yl]methyl}-N-methylpyridine-4-carboxamide]: the half-inhibitory concentration (IC50) was 34.1 nM.

The compound `CN(Cc1ccccc1C(F)(F)F)C(=O)c1cccc(CN2C(=N)NC(c3ccc(F)cc3)(c3ccc(F)cc3)C2=O)c1` [Example 46, 3-{[4,4-bis(4-fluorophenyl)-2-imino-5-oxoimidazolidin-1-yl]methyl}-N-methyl-N-[2-(trifluoromethyl)-benzyl]benzamide] gave an IC50 of 31.1 nM.

As for `CC(C)CC1(c2ccccc2)NC(=N)N(Cc2ccc(C(F)(F)F)c(C(=O)NCc3cnccn3)c2)C1=O` (stereo not drawn) [Example 6, 5-{[2-imino-4-(2-methylpropyl)-5-oxo-4-phenylimidazolidin-1-yl]methyl}-N-(pyrazin-2-ylmethyl)-2-(trifluoromethyl)benzamide], the IC50 was 46.4 nM.
